Results from US11084829B2, “Ubiquitin-specific-processing protease 7 (USP7) modulators and uses thereof” (RAPT THERAPEUTICS, INC., priority 2018, dated 2021).

biological target: USP7 (Homo sapiens, UniProt Q93009); assay: USP7 inhibitory potency (IC50); assay type: biochemical
Description: Activity for compounds described herein is provided in Table 2, wherein potency levels are provided as follows: (Potency: USP7 IC50: A<0.01 μM; B=0.01-0.1 μM; C=>0.1 μM.

Chain of USP7 (Q93009 whole entry): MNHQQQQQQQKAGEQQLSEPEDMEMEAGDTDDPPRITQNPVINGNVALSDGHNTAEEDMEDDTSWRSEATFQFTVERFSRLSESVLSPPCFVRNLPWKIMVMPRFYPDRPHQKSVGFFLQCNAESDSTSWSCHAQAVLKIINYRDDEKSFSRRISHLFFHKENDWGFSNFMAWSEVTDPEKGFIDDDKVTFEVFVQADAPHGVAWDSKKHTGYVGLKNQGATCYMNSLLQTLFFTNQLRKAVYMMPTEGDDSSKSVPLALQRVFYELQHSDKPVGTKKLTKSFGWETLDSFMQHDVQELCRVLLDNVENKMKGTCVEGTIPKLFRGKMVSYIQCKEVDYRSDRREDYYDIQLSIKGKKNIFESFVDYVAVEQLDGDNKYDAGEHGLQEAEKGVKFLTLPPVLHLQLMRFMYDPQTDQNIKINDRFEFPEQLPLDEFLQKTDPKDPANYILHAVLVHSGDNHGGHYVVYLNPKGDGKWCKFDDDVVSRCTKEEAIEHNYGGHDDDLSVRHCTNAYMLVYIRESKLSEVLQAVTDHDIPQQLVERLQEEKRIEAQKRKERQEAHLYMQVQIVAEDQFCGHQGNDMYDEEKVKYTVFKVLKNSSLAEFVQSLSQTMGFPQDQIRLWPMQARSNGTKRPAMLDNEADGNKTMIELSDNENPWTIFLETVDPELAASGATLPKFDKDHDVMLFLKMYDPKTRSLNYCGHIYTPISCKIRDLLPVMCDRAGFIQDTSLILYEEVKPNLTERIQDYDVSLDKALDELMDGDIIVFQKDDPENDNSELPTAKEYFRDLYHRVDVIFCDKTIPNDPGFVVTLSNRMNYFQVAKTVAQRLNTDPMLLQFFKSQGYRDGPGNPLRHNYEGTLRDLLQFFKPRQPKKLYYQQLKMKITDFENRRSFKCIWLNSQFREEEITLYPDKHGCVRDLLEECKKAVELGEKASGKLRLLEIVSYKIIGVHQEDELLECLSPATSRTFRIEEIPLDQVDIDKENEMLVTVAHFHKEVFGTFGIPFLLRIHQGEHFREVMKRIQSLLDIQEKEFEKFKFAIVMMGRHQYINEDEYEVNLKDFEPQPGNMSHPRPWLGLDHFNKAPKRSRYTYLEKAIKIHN

Compound	IC50
CCN1CCN(Cc2c(C)cc(Cl)cc2-c2ccnc3cc(CN4C(=O)CCC4=O)sc23)[C@@H](C)C1 [Example 11, (S)-1-((7-(5-chloro-2-((4-ethyl-2-methylpiperazin-1-yl)methyl)-3-methylphenyl)thieno[3,2-b]pyridin-2-yl)methyl)pyrrolidine-2,5-dione]	< 10 nM
Cc1cc(Cl)cc(-c2ncnc3cc(CN4C(=O)CCN(C)C4=O)sc23)c1CC1CNCC(C)(C)O1 (centres unmarked) [Example 193, 3-((4-(5-chloro-2-((6,6-dimethylmorpholin-2-yl)methyl)-3-methylphenyl)thieno[3,2-d]pyrimidin-6-yl)methyl)-1-methyldihydropyrimidine-2,4(1H,3H)-dione]	< 10 nM
Cc1cc(Cl)cc(-c2ccnc3cc(Cn4c(=O)ccn(CC(F)(F)F)c4=O)sc23)c1CN1CCCNCC1=O [Example 256, 3-((7-(5-chloro-3-methyl-2-((2-oxo-1,4-diazepan-1-yl)methyl)phenyl)thieno[3,2-b]pyridin-2-yl)methyl)-1-(2,2,2-trifluoroethyl)pyrimidine-2,4(1H,3H)-dione]	10 to 100 nM
Cc1cc(Cl)cc(-c2ncnc3cc(CN4C(=O)C5CCCN5C4=O)sc23)c1CC1CNCCO1 (centres unmarked) [Example 187, 2-((4-(5-chloro-3-methyl-2-(morpholin-2-ylmethyl)phenyl)thieno[3,2-d]pyrimidin-6-yl)methyl)tetrahydro-1H-pyrrolo[1,2-c]imidazole-1,3(2H)-dione]	< 10 nM
Cc1cc(Cl)cc(-c2ccnc3cc(Cn4c(=O)ccn(CC(F)(F)F)c4=O)sc23)c1CN1CCNCCC1=O [Example 255, 3-((7-(5-chloro-3-methyl-2-((7-oxo-1,4-diazepan-1-yl)methyl)phenyl)thieno[3,2-b]pyridin-2-yl)methyl)-1-(2,2,2-trifluoroethyl)pyrimidine-2,4(1H,3H)-dione]	10 to 100 nM
Cc1cc(Cl)cc(-c2ccnc3cc(CN4C(=O)CCC4=O)sc23)c1CN1C[C@@H](C)N[C@@H](C)C1 [Example 19, 1-((7-(5-chloro-2-(((3 S,5R)-3,5-dimethylpiperazin-1-yl)methyl)-3-methylphenyl)thieno[3,2-b]pyridin-2-yl)methyl)pyrrolidine-2,5-dione]	10 to 100 nM
3-((7-(3,5-dichloro-2-(((2S,6S)-2,6-dimethylpiperazin-1-yl)methyl)phenyl)thieno[3,2-b]pyridin-2-yl)methyl)-1-methylpyrimidine-2,4(1H,3H)-dione [Example 95]	< 10 nM
Cc1cc(Cl)cc(-c2ccnc3cc(CN4C(=O)C5CC5C4=O)sc23)c1CN1C[C@H](C)NC[C@H]1C (stereo partly drawn) [Example 37, 3-((7-(5-chloro-2-(((2R,5 S)-2,5-dimethylpiperazin-1-yl)methyl)-3-methylphenyl)thieno[3,2-b]pyridin-2-yl)methyl)-3-azabicyclo[3.1.0]hexane-2,4-dione]	< 10 nM
C[C@H]1CNC[C@H](C)N1Cc1c(Cl)cc(Cl)cc1-c1ccnc2cc(CN3C(=O)CCC3=O)sc12 [Example 48, 1-((7-(3,5-dichloro-2-(((2S,6S)-2,6-dimethylpiperazin-1-yl)methyl)phenyl)thieno[3,2-b]pyridin-2-yl)methyl)pyrrolidine-2,5-dione]	< 10 nM
Cc1cc(Cl)cc(-c2ccnc3cc(Cn4c(=O)ccn(CC(F)(F)F)c4=O)sc23)c1CC1CNCCO1 (centres unmarked) [Example 109, 3-((7-(5-chloro-3-methyl-2-(morpholin-2-ylmethyl)phenyl)thieno[3,2-b]pyridin-2-yl)methyl)-1-(2,2,2-trifluoroethyl)pyrimidine-2,4(1H,3H)-dione]	< 10 nM
Cc1cc(Cl)cc(-c2ccnc3cc(CN4C(=O)CCC4=O)sc23)c1CN1C[C@H](C)N[C@@H](C)C1 [Example 25, 1-((7-(5-chloro-2-(((3 S,5 S)-3,5-dimethylpiperazin-1-yl)methyl)-3-methylphenyl)thieno[3,2-b]pyridin-2-yl)methyl)pyrrolidine-2,5-dione]	< 10 nM
Cc1cc(Cl)cc(-c2ncnc3cc(CN4C(=O)CCN(CCF)C4=O)sc23)c1C[C@@H]1CNCC(C)(C)O1 [Example 257, 3-[[4-[5-chloro-2-[[(2R)-6,6-dimethylmorpholin-2-yl]methyl]-3-methyl-phenyl]thieno[3,2-d]pyrimidin-6-yl]methyl]-1-(2-fluoroethyl)hexahydropyrimidine-2,4-dione]	< 10 nM

Next, values leading:

IC50	Compound
10 to 100 nM	Cc1cc(Cl)cc(-c2ncnc3cc(CN4C(=O)CN(CC(=O)O)C4=O)sc23)c1C[C@@H]1CNCCO1 [Example 261, (R)-2-(3-((4-(5-chloro-3-methyl-2-(morpholin-2-ylmethyl)phenyl)thieno[3,2-d]pyrimidin-6-yl)methyl)-2,4-dioxoimidazolidin-1-yl)acetic acid]
< 10 nM	Cc1cc(Cl)cc(-c2ncnc3cc(CN4C(=O)OC[C@@H]4CO)sc23)c1C[C@@H]1CNCC(C)(C)O1 [Example 268, (S)-3-((4-(5-chloro-2-(((R)-6,6-dimethylmorpholin-2-yl)methyl)-3-methylphenyl)thieno[3,2-d]pyrimidin-6-yl)methyl)-4-(hydroxymethyl)oxazolidin-2-one]
< 10 nM	Cc1cc(Cl)cc(-c2ncnc3cc(Cn4c(=O)c(F)cn(C(C)C)c4=O)sc23)c1CC1CNCCO1 (centres unmarked) [Example 168, 3-((4-(5-chloro-3-methyl-2-(morpholin-2-ylmethyl)phenyl)thieno[3,2-d]pyrimidin-6-yl)methyl)-5-fluoro-1-isopropylpyrimidine-2,4(1H,3H)-dione]
< 10 nM	3-((7-(5-chloro-2-(((2S,6S)-2,6-dimethyl piperazin-1-yl)methyl)-3-methylphenyl)thieno[3,2-b]pyridin-2-yl)methyl)-1-methylpyrimidine-2,4(1H,3H)-dione [Example 78]
< 10 nM	Cc1cc(Cl)cc(-c2ncnc3cc(CN4C(=O)C5CCC5C4=O)sc23)c1CC1CNCC(C)(C)O1 (centres unmarked) [Example 180, 3-((4-(5-chloro-2-((6,6-dimethylmorpholin-2-yl)methyl)-3-methylphenyl)thieno[3,2-d]pyrimidin-6-yl)methyl)-3-azabicyclo[3.2.0]heptane-2,4-dione]
< 10 nM	Cc1cc(Cl)cc(-c2ccnc3cc(CN4C(=O)CCCC4=O)sc23)c1CN1C[C@@H](C)NC[C@@H]1C [Example 45, 1-((7-(5-chloro-2-(((2S,5R)-2,5-dimethylpiperazin-1-yl)methyl)-3-methylphenyl)thieno[3,2-b]pyridin-2-yl)methyl)piperidine-2,6-dione]
< 10 nM	Cc1cc(Cl)cc(-c2ncnc3cc(CN4C(=O)COCC4=O)sc23)c1CC1CNCCO1 (centres unmarked) [Example 169, 4-((4-(5-chloro-3-methyl-2-(morpholin-2-ylmethyl)phenyl)thieno[3,2-d]pyrimidin-6-yl)methyl)morpholine-3,5-dione]
> 100 nM	Cc1cc(Cl)cc(-c2ncnc3cc(CN4CCCCC4=O)sc23)c1CN1C[C@@H](C)NC[C@@H]1C [Example 82, 1-((4-(5-chloro-2-(((2S,5R)-2,5-dimethylpiperazin-1-yl)methyl)-3-methylphenyl)thieno[3,2-d]pyrimidin-6-yl)methyl)piperidin-2-one]
< 10 nM	Cc1cc(Cl)cc(-c2ncnc3cc(CN4C(=O)C5C(C4=O)C5(C)C)sc23)c1CN1CCNC[C@@H]1C (stereo partly drawn) [Example 50, 3-((4-(5-chloro-3-methyl-2-(((S)-2-methylpiperazin-1-yl)methyl)phenyl)thieno[3,2-d]pyrimidin-6-yl)methyl)-6,6-dimethyl-3-azabicyclo[3.1.0]hexane-2,4-dione]
< 10 nM	Cc1cc(Cl)cc(-c2ccnc3cc(CN4C(=O)CCC4=O)sc23)c1CN1CCN(C(C)C)C[C@@H]1C [Example 21, (S)-1-((7-(5-chloro-2-((4-isopropyl-2-methylpiperazin-1-yl)methyl)-3-methylphenyl)thieno[3,2-b]pyridin-2-yl)methyl)pyrrolidine-2,5-dione]
< 10 nM	Cc1cc(Cl)cc(-c2ncnc3cc(CN4C(=O)NC(C(C)C)C4=O)sc23)c1C[C@@H]1CNCCO1 (stereo partly drawn) [Example 246, 3-((4-(5-chloro-3-methyl-2-(((R)-morpholin-2-yl)methyl)phenyl)thieno[3,2-d]pyrimidin-6-yl)methyl)-5-isopropylimidazolidine-2,4-dione]
< 10 nM	Cc1cc(Cl)cc(-c2ncnc3cc(CN4C(=O)C5CC5C4=O)sc23)c1C[C@@H]1CNC[C@@H](C)O1 (stereo partly drawn) [Example 155, 3-((4-(5-chloro-3-methyl-2-(((2R,6R)-6-methylmorpholin-2-yl)methyl)phenyl)thieno[3,2-d]pyrimidin-6-yl)methyl)-3-azabicyclo[3.1.0]hexane-2,4-dione]
10 to 100 nM	Cc1cc(Cl)cc(-c2ncnc3cc(Cn4c(=O)cc[nH]c4=O)sc23)c1C[C@@H]1CNCC(C)(C)O1 [Example 266, (R)-3-((4-(5-chloro-2-((6,6-dimethylmorpholin-2-yl)methyl)-3-methylphenyl)thieno[3,2-d]pyrimidin-6-yl)methyl)pyrimidine-2,4(1H,3H)-dione]
< 10 nM	CN1CC(=O)N(Cc2cc3ncnc(-c4cc(Cl)cc(Cl)c4CC4CNCC(C)(C)O4)c3s2)C1=O (centres unmarked) [Example 253, 3-((4-(3,5-dichloro-2-((6,6-dimethylmorpholin-2-yl)methyl)phenyl)thieno[3,2-d]pyrimidin-6-yl)methyl)-1-methylimidazolidine-2,4-dione]
< 10 nM	Cc1cc(Cl)cc(-c2ncnc3cc(Cn4c(=O)ccn(C)c4=O)sc23)c1C[C@@H]1CNCC(C)(C)O1 [Example 218, (R)-3-((4-(5-chloro-2-((6,6-dimethylmorpholin-2-yl)methyl)-3-methylphenyl)thieno[3,2-d]pyrimidin-6-yl)methyl)-1-methylpyrimidine-2,4(1H,3H)-dione]
< 10 nM	Cc1cc(Cl)cc(-c2ncnc3cc(CN4C(=O)C5CCCCN5C4=O)sc23)c1CC1CNCCO1 (centres unmarked) [Example 184, 2-((4-(5-chloro-3-methyl-2-(morpholin-2-ylmethyl)phenyl)thieno[3,2-d]pyrimidin-6-yl)methyl)tetrahydroimidazo[1,5-a]pyridine-1,3(2H,5H)-dione]
< 10 nM	Cc1cc(Cl)cc(-c2ccnc3cc(CN4C(=O)CCC4=O)sc23)c1CN1CCNCC1(C)C [Example 12, 1-((7-(5-chloro-2-((2,2-dimethylpiperazin-1-yl)methyl)-3-methylphenyl)thieno[3,2-b]pyridin-2-yl)methyl)pyrrolidine-2,5-dione]
